This is an account of results in PubChem BioAssay AID1259246 (Broad Institute, 2017).

Where “and” joins values, the source holds several entries; their conditions need not be identical. Identical values can stand only once. Results filed as inconclusive are left out. Calls of active or inactive are those of the source.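 How the source made its calls: active means valid dose-response fit whose half-maximal growth-inhibiting concentration is at or below a set limit above the top tested dose; inconclusive means flat fit with effect between 30 and 70%, or poor fit; inactive means half-maximal concentration above a set limit.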

The term IC50 denotes the concentration at which inhibition is half-maximal.

In the test the test system is Clostridioides difficile clinical isolate growth, OD600, 24 h. The experiment in a line: antibacterial activity against Clostridioides difficile – 10-point retest, dose response (AID 1259246).
As for `C[C@@H]1CN([C@@H](C)CO)C(=O)c2cc(NC(=O)Nc3cccc4ccccc34)ccc2O[C@@H](C)CCCCO[C@H]1CN(C)CC1CCCCC1`, the concentration for half-maximal inhibition (IC50) was 77.1 µM.

For `C[C@@H]1CN([C@@H](C)CO)C(=O)c2cccc(NC(=O)Nc3ccc(C(F)(F)F)cc3)c2O[C@@H]1CN(C)Cc1ccc(-c2ccccc2)cc1`, the IC50 was 0.3 µM and 1.52 µM and 0.654 µM.

Consider `C[C@@H]1CN([C@@H](C)CO)C(=O)c2cccc(NC(=O)Nc3ccccc3)c2O[C@@H]1CN(C)Cc1ccc(C(F)(F)F)cc1`, for which the IC50 is 54.2 µM and 28 µM.

For the molecule `CO[C@H]1CN(C)C(=O)c2cc(NC(=O)Nc3ccc(Cl)c(Cl)c3)ccc2OC[C@@H](C)NC[C@H]1C`, the IC50 was 14.9 µM and 13.1 µM.

Take `COc1ccc(S(=O)(=O)Nc2ccc3c(c2)C(=O)N([C@@H](C)CO)C[C@H](C)[C@@H](CN(C)Cc2ccc4c(c2)OCO4)OCCCC[C@@H](C)O3)cc1`: the IC50 was 12 µM.

On to `CO[C@@H](CN(C)C(=O)C1CCOCC1)[C@H](C)CN(C(=O)Nc1ccc(C(F)(F)F)cc1)[C@@H](C)CO`, for which the half-inhibitory concentration (IC50) is 23.4 µM.

Take `COc1ccc(NC(=O)Nc2cccc3c2O[C@H](CN(C)Cc2ccc(C(F)(F)F)cc2)[C@H](C)CN([C@@H](C)CO)C3=O)cc1`: the IC50 was 25.6 µM.

In the case of `CC(C)CC#Cc1ccc2c(c1)O[C@H](CN(C)Cc1ccc(C(=O)O)cc1)[C@@H](C)CN([C@H](C)CO)S2(=O)=O`, the IC50 is 42.9 µM.

On to `C[C@@H]1CN([C@@H](C)CO)C(=O)Cc2cc(NC(=O)CCCN(C)C)ccc2O[C@H]1CN(C)Cc1ccc(-c2ccccc2)cc1`, for which the IC50 is 31.4 µM.

On to `C[C@@H]1CCCCO[C@H](CN(C)Cc2ccc3c(c2)OCO3)[C@@H](C)CN([C@@H](C)CO)C(=O)c2cc(NS(=O)(=O)c3cccs3)ccc2O1`, for which the IC50 is 33.5 µM.

For the molecule `C[C@H]1CN([C@@H](C)CO)C(=O)c2cccc(NC(=O)Nc3ccc(C(F)(F)F)cc3)c2O[C@H]1CN(C)Cc1ccc(-c2ccccc2)cc1`, the IC50 was 116 µM.

As for `CO[C@@H]1CN(C)C(=O)c2cc(NC(=O)Nc3cc(Cl)cc(Cl)c3)ccc2OC[C@H](C)NC[C@H]1C`, the half-inhibitory concentration (IC50) is 15.8 µM and 36.4 µM.

Consider `C[C@@H]1CN([C@H](C)CO)S(=O)(=O)c2ccc(C#CCC3CCCC3)cc2O[C@H]1CN(C)Cc1ccc(C(=O)O)cc1`, for which the concentration for half-maximal inhibition (IC50) was 76.2 µM.

For the molecule `C[C@H]1CN([C@@H](C)CO)S(=O)(=O)c2ccc(C#CCC3CCCC3)cc2O[C@H]1CN(C)C`, the IC50 was 70.9 µM.

With `CO[C@H]1CN(C)C(=O)c2ccc(NC(=O)Nc3ccc(Cl)c(Cl)c3)cc2OC[C@H](C)NC[C@H]1C`, the 50% inhibitory concentration (IC50) is 14.9 µM and 8.28 µM.

Turning to `C[C@H](CO)N1C[C@H](C)[C@H](CN(C)C(=O)NC2CCCCC2)Oc2ncc(C#Cc3ccc(F)cc3)cc2C1=O`, the IC50 was 37.7 µM.

Turning to `COc1ccc(S(=O)(=O)N(C)C[C@H]2Oc3ccc(NC(=O)Nc4ccc(C(F)(F)F)cc4)cc3C(=O)N([C@@H](C)CO)C[C@@H]2C)cc1`, the concentration for half-maximal inhibition (IC50) is 51.2 µM.

For `Cc1ccc(F)cc1S(=O)(=O)N[C@@H]1CCN(Cc2ccc(CC(C)C)cc2)C1`, the concentration for half-maximal inhibition (IC50) was 14.3 µM.

For the molecule `C[C@@H]1CN([C@@H](C)CO)C(=O)c2cccc(NC(=O)Nc3ccccc3)c2O[C@@H]1CN(C)Cc1ccc(Oc2ccccc2)cc1`, the IC50 was 1.2 µM and 0.402 µM and < 0.235 µM.

As for `C[C@H]1CN([C@@H](C)CO)S(=O)(=O)c2ccc(C#CCC3CCCC3)cc2O[C@@H]1CN(C)C`, the half-maximal inhibitory concentration (IC50) was 72.5 µM.

On to `C[C@@H]1CN([C@H](C)CO)S(=O)(=O)c2ccc(/C=C/c3ccccc3)cc2O[C@@H]1CN(C)Cc1ccc(C(=O)O)cc1`, for which the half-inhibitory concentration (IC50) was 153 µM.

In the case of `CO[C@H]1CN(C)C(=O)c2cc(NC(=O)Nc3ccc(Cl)c(Cl)c3)ccc2OC[C@H](C)NC[C@@H]1C`, the IC50 is 15.1 µM and 73 µM.

In the case of `C[C@H]1CN([C@@H](C)CO)C(=O)c2ccccc2-c2ccccc2CO[C@@H]1CN(C)Cc1ccccc1C(F)(F)F`, the half-inhibitory concentration (IC50) was 13.6 µM.

`Cc1cc(C(=O)Nc2cccc3c2O[C@@H](CN(C)Cc2ccc(-c4ccccc4)cc2)[C@H](C)CN([C@@H](C)CO)C3=O)n(C)n1`: the concentration for half-maximal inhibition (IC50) was 17.5 µM.

On to `CO[C@H](CN(C)C(=O)C1CCOCC1)[C@@H](C)CN(C(=O)Nc1ccc(C(F)(F)F)cc1)[C@@H](C)CO`, for which the concentration for half-maximal inhibition (IC50) is 2.03 µM.

Consider `C[C@@H]1CN([C@@H](C)CO)C(=O)c2cccc(NC(=O)Nc3ccc4c(c3)OCO4)c2O[C@@H]1CN(C)Cc1ccc(Oc2ccccc2)cc1`, for which the IC50 was less than 0.26 µM.

As to `Cc1ccc(S(=O)(=O)Nc2ccc3c(c2)C(=O)N([C@@H](C)CO)C[C@H](C)[C@@H](CN(C)Cc2ccc4c(c2)OCO4)OCCCC[C@@H](C)O3)cc1`, the IC50 was 17.6 µM.

Turning to `CO[C@H]1CN(C)C(=O)c2cc(NC(=O)Nc3cc(Cl)cc(Cl)c3)ccc2OC[C@H](C)NC[C@@H]1C`, the IC50 was 34 µM and 55 µM.

`CNC[C@H]1Oc2c(NC(=O)Nc3ccc(C(F)(F)F)cc3)cccc2C(=O)N([C@@H](C)CO)C[C@H]1C`: the IC50 was 36.7 µM.

As to `CO[C@@H](CN(C)C(=O)C1CCOCC1)[C@@H](C)CN(C(=O)Nc1ccc(C(F)(F)F)cc1)[C@H](C)CO`, the half-maximal inhibitory concentration (IC50) is 4.1 µM.

Consider `O=C(C[C@@H]1CC[C@H]2[C@@H](COC[C@H](O)CN2S(=O)(=O)c2ccccc2)O1)NCC1CCCCC1`, for which the IC50 was 35.1 µM.

For `C[C@@H]1CN([C@@H](C)CO)C(=O)c2cccc(NC(=O)Nc3ccc(F)cc3)c2O[C@@H]1CN(C)Cc1ccc(C(F)(F)F)cc1`, the IC50 is 13 µM and 3.27 µM and 6.22 µM.

As to `C[C@@H]1CN([C@@H](C)CO)C(=O)c2cccc(NC(=O)Nc3ccc(C(F)(F)F)cc3)c2O[C@@H]1CN(C)C(=O)Nc1ccc(F)cc1`, the IC50 is 13.9 µM and > 240 µM (inactive).

Regarding `CO[C@@H](CN(C)S(=O)(=O)c1cn(C)cn1)[C@@H](C)CN(C(=O)Nc1ccc(C(F)(F)F)cc1)[C@H](C)CO`, the IC50 is 24.7 µM.

Regarding `C[C@@H]1CN([C@@H](C)CO)C(=O)c2cc(NC(=O)Nc3ccc(C(F)(F)F)cc3)ccc2O[C@@H](C)CCCCO[C@H]1CN(C)CC1CCCCC1`, the IC50 is 10.9 µM and 2.15 µM.

Take `CO[C@H]1CN(C)C(=O)c2cc(NC(=O)Nc3ccc(Cl)c(Cl)c3)ccc2OC[C@H](C)NC[C@H]1C`: the IC50 is 15.7 µM and 26.5 µM.

For the molecule `C[C@H](O)C#Cc1ccc2c(c1)O[C@H](CN(C)C(=O)CN(C)C)[C@H](C)CN([C@H](C)CO)S2(=O)=O`, the IC50 is > 240 µM (inactive).

`C[C@@H]1CN([C@H](C)CO)S(=O)(=O)c2ccc(C#CCC3CCCC3)cc2O[C@H]1CN(C)C`: the IC50 is 69.3 µM.

As to `C[C@H](CO)N1C[C@H](C)[C@H](CN(C)C(=O)Nc2ccccc2)Oc2c(NC(=O)Nc3ccc(C(F)(F)F)cc3)cccc2C1=O`, the IC50 is 19.8 µM.

Regarding `CO[C@H]1CN(C)C(=O)c2cc(NC(=O)Nc3ccc(Cl)c(Cl)c3)ccc2OC[C@@H](C)NC[C@@H]1C`, the concentration for half-maximal inhibition (IC50) is 14.5 µM and 17.6 µM.

Turning to `COc1ccc(S(=O)(=O)Nc2cccc3c2O[C@H](CN(C)Cc2ccc(-c4ccccc4)cc2)[C@H](C)CN([C@@H](C)CO)C3=O)cc1`, the half-maximal inhibitory concentration (IC50) is 54.2 µM.

Turning to `C[C@@H]1CN([C@@H](C)CO)C(=O)c2cccc(NC(=O)Nc3ccc(C(F)(F)F)cc3)c2O[C@@H]1CN(C)Cc1ccc(Oc2ccccc2)cc1`, the IC50 is 0.443 µM and 0.73 µM.

Regarding `C[C@H]1CN([C@@H](C)CO)S(=O)(=O)c2ccc(C#Cc3ccc(F)cc3)cc2O[C@@H]1CN(C)C`, the IC50 was 69.9 µM.

On to `COc1ccc(NC(=O)Nc2cccc3c2O[C@H](CN(C)Cc2ccc(Oc4ccccc4)cc2)[C@H](C)CN([C@@H](C)CO)C3=O)cc1`, for which the concentration for half-maximal inhibition (IC50) was 2.47 µM and 0.531 µM and 0.465 µM.

As for `CO[C@H]1CN(C)C(=O)c2ccc(NC(=O)Nc3cc(Cl)cc(Cl)c3)cc2OC[C@H](C)NC[C@H]1C`, the IC50 is 25.6 µM and 69.2 µM.

For `O=C(C[C@H]1CC[C@@H]2[C@H](COC[C@@H](O)CN2S(=O)(=O)c2ccccc2)O1)NCC1CCCCC1`, the half-maximal inhibitory concentration (IC50) is 52.4 µM.
